Legend:
Assay in all cases: KINOMEscan (ScanMAX) kinase profiling
Type in all cases: binding
panel of 468 kinases [1] = target: T1, panel of 468 kinases (Homo sapiens, UniProt P29376); conditions: LTK; 1 μM; read-out: % control
T1 construct: purchased KINOMEscan (ScanMAX) service

panel of 468 kinases [2] = target: T2, panel of 468 kinases (Homo sapiens, UniProt P51956); conditions: NEK3; 1 μM; read-out: % control
T2 construct: purchased KINOMEscan (ScanMAX) service
T2 sequence (P51956 1-506): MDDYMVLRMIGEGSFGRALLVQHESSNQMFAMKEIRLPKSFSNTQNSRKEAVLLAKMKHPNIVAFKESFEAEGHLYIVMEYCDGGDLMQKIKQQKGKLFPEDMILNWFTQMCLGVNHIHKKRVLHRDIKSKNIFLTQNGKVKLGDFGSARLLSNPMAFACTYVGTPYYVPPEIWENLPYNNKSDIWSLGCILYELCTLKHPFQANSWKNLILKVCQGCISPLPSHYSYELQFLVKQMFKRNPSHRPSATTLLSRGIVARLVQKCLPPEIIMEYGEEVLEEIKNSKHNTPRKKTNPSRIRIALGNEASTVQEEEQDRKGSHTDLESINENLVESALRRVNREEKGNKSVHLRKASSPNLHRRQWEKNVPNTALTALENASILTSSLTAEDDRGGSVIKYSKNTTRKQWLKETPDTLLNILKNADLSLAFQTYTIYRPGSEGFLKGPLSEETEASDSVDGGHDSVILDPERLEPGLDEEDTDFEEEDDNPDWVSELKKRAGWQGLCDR

panel of 468 kinases [3] = target: T3, panel of 468 kinases (Homo sapiens, UniProt Q04771); conditions: ACVR1; 1 μM; read-out: % control
T3 construct: purchased KINOMEscan (ScanMAX) service
T3 sequence (Q04771 21-509): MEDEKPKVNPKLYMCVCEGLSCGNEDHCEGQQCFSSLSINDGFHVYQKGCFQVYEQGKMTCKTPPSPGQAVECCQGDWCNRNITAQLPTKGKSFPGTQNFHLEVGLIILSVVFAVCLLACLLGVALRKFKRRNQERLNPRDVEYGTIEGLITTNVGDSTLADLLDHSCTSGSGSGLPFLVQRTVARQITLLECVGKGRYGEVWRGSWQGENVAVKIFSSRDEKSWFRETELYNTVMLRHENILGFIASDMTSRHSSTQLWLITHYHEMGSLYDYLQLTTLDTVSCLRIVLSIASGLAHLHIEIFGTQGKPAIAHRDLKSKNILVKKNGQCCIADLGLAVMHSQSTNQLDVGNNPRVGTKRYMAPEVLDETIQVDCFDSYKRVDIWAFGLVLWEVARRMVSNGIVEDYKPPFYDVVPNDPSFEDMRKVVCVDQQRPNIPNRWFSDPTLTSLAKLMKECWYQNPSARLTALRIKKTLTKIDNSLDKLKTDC

panel of 468 kinases [4] = target: T4, panel of 468 kinases (Homo sapiens, UniProt Q16584); conditions: MLK3; 1 μM; read-out: % control
T4 construct: purchased KINOMEscan (ScanMAX) service

panel of 468 kinases [5] = target: T5, panel of 468 kinases (Homo sapiens, UniProt Q96PY6); conditions: NEK1; 1 μM; read-out: % control
T5 construct: purchased KINOMEscan (ScanMAX) service
T5 sequence (Q96PY6 1-1258): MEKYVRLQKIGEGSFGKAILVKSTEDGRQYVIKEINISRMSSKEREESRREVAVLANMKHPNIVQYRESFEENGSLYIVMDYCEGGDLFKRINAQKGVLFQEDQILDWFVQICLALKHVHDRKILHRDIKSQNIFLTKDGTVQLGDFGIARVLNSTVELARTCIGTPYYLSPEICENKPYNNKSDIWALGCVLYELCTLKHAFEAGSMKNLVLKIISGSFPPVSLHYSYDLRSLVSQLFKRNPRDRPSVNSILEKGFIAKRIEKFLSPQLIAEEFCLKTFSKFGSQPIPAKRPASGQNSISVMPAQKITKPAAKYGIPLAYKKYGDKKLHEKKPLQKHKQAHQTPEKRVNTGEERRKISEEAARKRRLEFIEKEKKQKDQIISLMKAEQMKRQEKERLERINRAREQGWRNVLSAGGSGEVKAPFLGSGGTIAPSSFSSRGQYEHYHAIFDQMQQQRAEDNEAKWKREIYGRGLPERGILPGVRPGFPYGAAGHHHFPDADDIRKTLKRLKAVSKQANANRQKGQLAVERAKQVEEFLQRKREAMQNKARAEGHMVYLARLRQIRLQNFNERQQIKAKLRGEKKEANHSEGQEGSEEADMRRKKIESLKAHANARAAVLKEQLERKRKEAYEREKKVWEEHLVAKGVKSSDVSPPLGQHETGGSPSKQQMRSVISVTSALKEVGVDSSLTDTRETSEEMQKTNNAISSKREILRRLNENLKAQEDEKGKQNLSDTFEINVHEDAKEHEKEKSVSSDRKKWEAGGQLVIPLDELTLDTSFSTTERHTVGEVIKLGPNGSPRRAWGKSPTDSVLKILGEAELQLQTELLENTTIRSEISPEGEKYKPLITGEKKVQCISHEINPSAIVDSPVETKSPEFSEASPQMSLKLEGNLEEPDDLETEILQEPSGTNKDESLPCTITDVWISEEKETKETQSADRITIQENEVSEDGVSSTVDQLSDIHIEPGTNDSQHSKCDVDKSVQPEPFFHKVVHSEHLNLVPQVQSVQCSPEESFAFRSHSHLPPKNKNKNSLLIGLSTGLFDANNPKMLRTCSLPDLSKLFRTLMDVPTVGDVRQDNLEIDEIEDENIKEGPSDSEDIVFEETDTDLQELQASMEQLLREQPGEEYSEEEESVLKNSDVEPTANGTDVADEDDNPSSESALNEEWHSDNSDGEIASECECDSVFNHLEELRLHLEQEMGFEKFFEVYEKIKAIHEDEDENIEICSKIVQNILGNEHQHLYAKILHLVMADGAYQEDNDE

T1 sequence (P29376 17-864): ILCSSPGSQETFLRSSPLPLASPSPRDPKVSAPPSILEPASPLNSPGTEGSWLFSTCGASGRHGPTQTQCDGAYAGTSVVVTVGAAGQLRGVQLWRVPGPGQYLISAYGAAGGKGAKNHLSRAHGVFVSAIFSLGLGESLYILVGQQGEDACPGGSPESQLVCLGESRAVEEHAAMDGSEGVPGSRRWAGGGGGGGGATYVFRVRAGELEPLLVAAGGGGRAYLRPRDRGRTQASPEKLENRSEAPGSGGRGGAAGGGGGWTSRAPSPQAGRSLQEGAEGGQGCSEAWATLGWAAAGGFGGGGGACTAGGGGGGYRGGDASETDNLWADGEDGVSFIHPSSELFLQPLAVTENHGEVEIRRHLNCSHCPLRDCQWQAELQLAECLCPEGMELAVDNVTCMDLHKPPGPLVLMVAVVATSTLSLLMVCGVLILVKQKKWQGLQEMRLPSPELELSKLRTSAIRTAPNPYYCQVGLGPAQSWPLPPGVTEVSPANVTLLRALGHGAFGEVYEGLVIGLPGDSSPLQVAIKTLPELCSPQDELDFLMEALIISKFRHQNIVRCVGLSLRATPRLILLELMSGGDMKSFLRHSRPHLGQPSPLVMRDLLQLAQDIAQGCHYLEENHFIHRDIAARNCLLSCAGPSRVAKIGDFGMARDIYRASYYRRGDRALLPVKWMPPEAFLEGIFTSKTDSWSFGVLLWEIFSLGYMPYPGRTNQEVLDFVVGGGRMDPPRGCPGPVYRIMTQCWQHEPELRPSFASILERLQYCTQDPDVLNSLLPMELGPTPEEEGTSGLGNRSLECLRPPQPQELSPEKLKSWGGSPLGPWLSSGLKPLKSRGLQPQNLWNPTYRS
T4 sequence (Q16584 whole entry): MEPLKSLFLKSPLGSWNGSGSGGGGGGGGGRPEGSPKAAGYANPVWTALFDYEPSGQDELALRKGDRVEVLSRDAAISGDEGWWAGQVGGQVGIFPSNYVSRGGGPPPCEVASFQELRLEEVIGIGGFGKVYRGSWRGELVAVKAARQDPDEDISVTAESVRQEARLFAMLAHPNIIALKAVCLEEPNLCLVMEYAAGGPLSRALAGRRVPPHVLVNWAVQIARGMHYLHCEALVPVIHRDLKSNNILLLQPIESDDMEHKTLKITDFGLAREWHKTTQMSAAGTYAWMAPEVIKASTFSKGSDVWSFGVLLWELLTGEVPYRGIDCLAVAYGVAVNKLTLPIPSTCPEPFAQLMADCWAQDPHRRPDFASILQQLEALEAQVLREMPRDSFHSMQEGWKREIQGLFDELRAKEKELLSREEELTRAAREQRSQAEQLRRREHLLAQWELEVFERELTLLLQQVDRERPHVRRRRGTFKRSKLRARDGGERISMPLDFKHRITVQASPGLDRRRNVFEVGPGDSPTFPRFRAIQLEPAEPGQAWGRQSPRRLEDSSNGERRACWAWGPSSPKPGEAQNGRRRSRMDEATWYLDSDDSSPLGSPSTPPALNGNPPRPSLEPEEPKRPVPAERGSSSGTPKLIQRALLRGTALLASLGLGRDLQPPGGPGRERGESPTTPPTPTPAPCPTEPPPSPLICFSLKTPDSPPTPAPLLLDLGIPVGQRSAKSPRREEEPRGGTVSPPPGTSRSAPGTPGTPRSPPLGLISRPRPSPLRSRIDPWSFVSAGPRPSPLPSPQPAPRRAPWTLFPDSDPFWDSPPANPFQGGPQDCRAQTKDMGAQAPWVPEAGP

Question: Which results are given for CNc1nc(Nc2ccc(S(=O)(=O)N3CCC(N4CCOCC4)CC3)cc2OC)nc2[nH]cc(Cl)c12 [Compound 12, 5-chloro-N2-(2-methoxy-4-((4-morpholinopiperidin-1-yl)sulfonyl)phenyl)-N4-methyl-7H-pyrrolo[2,3-d]pyrimidine-2,4-diamine]?
Answer: remaining binding at 1 µM (panel of 468 kinases [1]): 22%; remaining binding at 1 µM (panel of 468 kinases [2]): 51%; remaining binding at 1 µM (panel of 468 kinases [3]): 100%; remaining binding at 1 µM (panel of 468 kinases [4]): 93%; remaining binding at 1 µM (panel of 468 kinases [5]): 100%

Question: What does the source list for CNc1nc(Nc2ccc(C(=O)N3CCC(N4CCOCC4)CC3)c3c2OCO3)nc2[nH]cc(Cl)c12 [Compound 75, (7-((5-chloro-4-(methylamino)-7H-pyrrolo[2,3-d]pyrimidin-2-yl)amino)benzo[d][1,3]dioxol-4-yl)(4-morpholinopiperidin-1-yl)methanone]?
Answer: remaining binding at 1 µM (panel of 468 kinases [1]): 19%; remaining binding at 1 µM (panel of 468 kinases [2]): 54%; remaining binding at 1 µM (panel of 468 kinases [3]): 100%; remaining binding at 1 µM (panel of 468 kinases [4]): 51%; remaining binding at 1 µM (panel of 468 kinases [5]): 88%

Question: With CNc1nc(Nc2ccc(P3(=O)CCN(C4CCOCC4)CC3)cc2OC)nc2[nH]cc(Cl)c12 [Compound 77, 4-(4-((5-chloro-4-(methylamino)-7H-pyrrolo[2,3-d]pyrimidin-2-yl)amino)-3-methoxyphenyl)-1-(tetrahydro-2H-pyran-4-yl)-1,4-azaphosphinane 4-oxide] as the compound, how does the remaining binding at 1 µM (panel of 468 kinases [1]) read?
Answer: 21%

Question: What about the remaining binding at 1 µM (panel of 468 kinases [2]) of the same compound?
Answer: 52%

Question: What about the remaining binding at 1 µM (panel of 468 kinases [3]) of the same compound?
Answer: 100%

Question: What about the remaining binding at 1 µM (panel of 468 kinases [4]) of the same compound?
Answer: 80%

Question: What about the remaining binding at 1 µM (panel of 468 kinases [5]) of the same compound?
Answer: 98%

From patent US12479847B2 (DANA-FARBER CANCER INSTITUTE, INC., priority 2019, dated 2025)
